Columns and labels:
Format in all cases: cell-based, murine
[1] = system: IL-1β mRNA; experiment: LPS-induced IL-1β mRNA expression in RAW 264.7 cells (RT-PCR); conditions: LPS 50 ng/mL 6 h
Experimental: Total RNA was isolated, and used to measure the mRNA expression levels of IL-1b and β-actin by RT-PCR analysis. *** p < 0.001, ** p < 0.01. […] (A-C) Cells were treated with KMU-470 for 30 min and stimulated with LPS 50 ng/mL for 6 h. The levels of IL-1β, TNF-α, and IL-6 were determined using real time PCR. *** p < 0.001, *p < 0.05. (D) Cells were pre-treated with 0.1, 0.5, and 1 μM of KMU-470 for 30 min and treated with LPS 50 ng/mL for 6 h, respectively. […] (E) Cells were pre-treated with 0.1, 0.5, and 1 μM of KMU-470 for 30 min and treated with LPS 50 ng/mL for 6 h, respectively. […] Total RNA was isolated using TriZol reagent (Life Technologies; Gaithersburg, MD, USA) according to the manufacturer's protocol. Total RNA absorbance was quantified by using Nanodrop 1000 (Thermo Fisher Scientific, Waltham, MA, USA). […] Real time quantitative PCR was performed by using the SYBR green premix (Roche Diagnostics, Mannheim, Germany) on the LightCycler 480 PCR (system Roche Diagnostics, Mannheim, Germany). The following primer sequences were used: L32 (Housekeeping gene): forward [NT], reverse [NT]-1β; forward [NT], reverse [NT]-α; forward [NT], reverse [NT]-6; forward [NT], reverse [NT].

[2] = system: NO production; experiment: LPS-induced NO production in RAW 264.7 cells (Griess reagent); conditions: KMU-470 1 μM 30 min pre-treatment, LPS 50, 200, 1000 ng/mL 24 h
Experimental: (§1) Figure 3 Inhibitory effect of KMU-470 on LPS-induced NO production and iNOS protein expression, and cell viability in RAW 264.7 cells. (A) The cells were pre-treated with KMU-470 at a concentration of 1 μM for 30 min and then treated with different concentrations of LPS for 24 h. Nitrite in the culture supernatant was collected and evaluated using Griess reagent. Absorbance was measured at 540 nm. *** p < 0.001, ** p < 0.01, * p < 0.05. (B) Cells are pre-treated with two different concentrations of KMU-470 (0.5 μM and 1 μM) for 30 min, followed by treatment with 1 μg/mL LPS for 24 h. β-actin was used as an internal control for Western blot analysis. (C) Image-J program was used to analyze the relative optical density of the iNOS band. (D) Cells were treated with various concentrations of KMU-470 for 24 h. The effects of KMU-470 on cell proliferation and morphological changes were observed by microscopy (X100). (E) The cell proliferation rate was determined by cell count using a trypan blue exclusion assay. *p < 0.05 (F) Effect of KMU-470 on cell viability was measured by XTT assay. *** p < 0.001.
The amount of nitrite accumulated in the cell culture medium was measured directly using a Griess reagent as an indicator of NO production. […] The OD was measured by spectrophotometer (BMG Labtech, Ortenberg, Germany) at 540 nm. […]

[3] = system: iNOS protein; experiment: LPS-induced iNOS protein expression in RAW 264.7 cells (Western blot); conditions: KMU-470 0.5 and 1 μM 30 min, LPS 1 μg/mL 24 h
Experimental: as §1, with “The effects of KMU-470 on cell proliferation and morphological changes were observed by microscopy (X100).” left out
RAW 264.7 cells were pre-treated with KMU-470 (0.5–1 μM/mL) for 24 h and stimulated with LPS (50 ng/mL) for 6 h. […] Immunoreactive proteins were detected using the ELC Western blot detection system kit (Millipore). Signal intensity was measured using the Chemi Image documentation system (Fusion Fx7, VILBER LOUTMAT). Protein expression levels were quantified using the Image J program.

[4] = system: RAW 264.7 cells; experiment: Toxicity / cell viability in RAW 264.7 cells (microscopy, trypan blue, XTT); conditions: up to 1 µM, 24 h, trypan blue cell count
Experimental: as §1
The cell viability assay was performed using a 2,3-bis (2-methoxy-4-nitro-5-sulphonyl)-2H-tetrazolium-5-carboxanilide (XTT) assay (Welgene Inc, Daegu, Korea). […] The optical density (OD) was measured using a microplate reader (BMG Labtech, Ortenberg, Germany) at a 450 nm wavelength. […]

[5] = system: MyD88; experiment: LPS-induced MyD88 protein expression in RAW 264.7 cells (Western blot); conditions: KMU-470 0.5 and 1 μM 30 min, LPS 6 h
Experimental: Figure 4 Inhibitory effect of KMU-470 on LPS-induced TLR4 and MyD88 protein expression in RAW 264.7 cells. (A,B) Cells were pre-treated with 0.5 and 1 μM of KMU-470 for 30 min prior to LPS treatment. Then, total protein was isolated after 6 h exposure to LPS. The protein expression level of TLR4 and MyD88 were assessed using Western blot analysis. (C,D) The relative optical densities of TLR4 and MyD88 bands were analyzed by the Image-J program. *** p < 0.001.
(§2) RAW 264.7 cells were pre-treated with KMU-470 (0.5–1 μM/mL) for 24 h and stimulated with LPS (50 ng/mL) for 6 h. After stimulation, total cells were harvested, washed with PBS buffer, and then the total protein was extracted with a RIPA buffer (0.1 mM sodium orthovanadate, 137 mM NaCl, 15 mM EGTA, 0.1% Triton X-100, 25 mM MOPS, 15 mM MgCl2, 100 μM phenylmethylsulfonyl fluoride, and 20 μM leupeptin, adjusted to pH 7.2). The cell culture media supernatants were precipitated using TCA (trichloroacetic acid, protocol by Luis Sanchez 2001). A BCA protein assay kit (Thermo Scientific, Wilmington, USA) was used for the determination of the protein concentration. […] Immunoreactive proteins were detected using the ELC Western blot detection system kit (Millipore). Signal intensity was measured using the Chemi Image documentation system (Fusion Fx7, VILBER LOUTMAT). Protein expression levels were quantified using the Image J program.

[6] = system: ERK; experiment: LPS-induced phosphorylation of ERK in RAW 264.7 cells (Western blot); conditions: KMU-470 1 μM 24 h pre-treatment, LPS 50 ng/mL
Experimental: (§3) Figure 5 Effect of KMU-470 on LPS-induced phosphorylation of MAPKs/ IKKs/ NF-κB in RAW 264.7 cells. (A) Cells were pre-treated with 1μM of KMU-470 for 24 h and stimulated with LPS (50 ng/mL) at the indicated times. (C) Cells were pre-treated with 0.5 and 1μM of KMU-470 for 30 min prior to LPS treatment. Total proteins were isolated after 6 h exposure to LPS (50 ng/mL). The protein expression level of MAPKs, p-IKKα/β, and p-NF-κB were assessed using Western blot analyses. (B,D) The relative optical densities of MAPKs, p-IKKα/β, and p-NF-κB bands were analyzed by the Image-J program. *** p < 0.001.
as §2, with “7.2).” for “7.2). The cell culture media supernatants were precipitated using TCA (trichloroacetic acid, protocol by Luis Sanchez 2001). A BCA protein assay kit (Thermo Scientific, Wilmington, USA) was used for the determination of the protein concentration.”

[7] = system: p38; experiment: LPS-induced phosphorylation of p38 in RAW 264.7 cells (Western blot); conditions: KMU-470 1 μM 24 h pre-treatment, LPS 50 ng/mL
Experimental: as §3
as §2, with “7.2).” for “7.2). The cell culture media supernatants were precipitated using TCA (trichloroacetic acid, protocol by Luis Sanchez 2001). A BCA protein assay kit (Thermo Scientific, Wilmington, USA) was used for the determination of the protein concentration.”

[8] = system: NF-κB; experiment: LPS-induced phosphorylation of NF-κB in RAW 264.7 cells (Western blot); conditions: KMU-470 0.5 and 1 μM 30 min, LPS 50 ng/mL 6 h
Experimental: as §3
as §2, with “7.2).” for “7.2). The cell culture media supernatants were precipitated using TCA (trichloroacetic acid, protocol by Luis Sanchez 2001). A BCA protein assay kit (Thermo Scientific, Wilmington, USA) was used for the determination of the protein concentration.”

## CN(C)CCNc1cncc(-c2ccc3c(c2)/C(=C/c2cnc[nH]2)C(=O)N3)n1 [KMU-470, (Z)-3-((1H-Imidazol-5-yl)methylene)-5-(6-((2-(dimethylamino)ethyl)amino)pyrazin-2-yl)indolin-2-one]
[1]; 1 µM compound, pre-treatment 1 h, RT-PCR (Figure 2B)
  LPS-induced up-regulation of IL-1β mRNA expression: significantly inhibited
[1]; KMU-470 30 min, real time PCR (Figure 6A)
  LPS-induced up-regulation of IL-1β (mRNA): significantly decreased
[2]
  LPS-induced NO production: suppressed
[3]
  LPS-induced up-regulation of iNOS protein: attenuated
[4]
  Toxicity in RAW 264.7 cells: no toxicity
[5]
  Up-regulation of MyD88 protein by LPS: suppressed
[6]
  LPS-induced phosphorylation of ERK: significantly inhibited
[7]
  p38 phosphorylation level: no change
[8]
  LPS-induced phosphorylation of NF-κB: significantly reduced

Reference: PMC7403980, “Anti-Inflammatory Effects of the Novel PIM Kinase Inhibitor KMU-470 in RAW 264.7 Cells through the TLR4-NF-κB-NLRP3 Pathway” (International Journal of Molecular Sciences, 2020)
